From US10040810B2, “Derivatives of bisacylphosphinic acid, their preparation and use as photoinitiators” (priority 2012, dated 2018) come the findings set out here.

This series is described as follows: Solubility in water. The format is physicochemical. As to the method: 50 mg of the photoinitiator of example 1 is added to 1 ml of distilled water and the suspension stirred at room temperature for 60 minutes. Non-dissolved material is filtered off, dried in vacuo and weighed. The solubility is approximately 5 mg/ml.

Values after ≈ are worked out from the molar mass of the structure shown.

For orientation: solubility means the concentration that dissolves in the medium under given conditions. A high value points to much dissolved substance.

For `Cc1cc(C)c(C(=O)P(=O)(O)C(=O)c2c(C)cc(C)cc2C)c(C)c1` [Example 1, bis(2,4,6-trimethyl-benzoyl)-phosphinic acid], the solubility at 60 min (thermodynamic from solid, distilled water, room temperature, 60 minutes stirring) is around 5000 µg/mL (≈ 14 mM). For the setting “water, preparation of formulation 4c”, the “solubility in water (in words)” value is reported as “low solubility”.
